Assay results taken from US20080193428A1, “Composition and Method for Modulating and Maintaining Vaginal Bacterial Flora and Vaginal Acidity” (Shenzhen Phlora Biotechnology Limited, priority 2005, published 2008).

Tested on: lactobacilli
Test: Inhibition of growth and acid-production of lactobacilli at different pH
Assay type: cell-based

Question: “benzoic acid [benzoic acid and/or its sodium salt]” was tested. Which “inhibition effect on the growth and acid-production of lactobacilli” value (under a relatively high pH value (e.g., pH>4.6)) did it give?
Answer: became weak

Question: And the “inhibition effect on the growth and acid-production of lactobacilli” value (under a relatively low pH value (e.g., pH<4.0))?
Answer: relatively strong inhibition effect
